Key:
CD4+ and CD8+ T cells [1] = test: Viable cells in engineered T cell composition over the process; type: cell-based, human; details: presence vs absence of compound 63 in the process
Experimental: (§1) CD4+ and CD8+ T cells were isolated by immunoaffinity-based enrichment from leukapheresis samples from human donor subjects. […] The T cells cultured with our without Compound 63 were incubated overnight (approximately 24 hr) at 37° C., and were then transduced in serum-free culture media with our without Compound 63 ([…]) with a lentiviral vector encoding an anti-CD19 CAR. […] Following transduction, the cells were incubated in serum free media without recombinant cytokines (basal media) and with or without Compound 63 (1 mM) and allowed to incubate at about 37.0° C. in an incubator for up to 96 hours after initiation of the stimulation with the anti-CD3/anti-CD28 oligomeric stimulatory reagent (until day 5 of the process). […] The cryofrozen engineered CD4+ and CD8+ T cells were thawed, and T cells were assessed for intracellular S6 phosphorylation, a ribosomal protein and marker of mTOR inhibition, and co-stained for surface expression of CD4 or CD8 and for CCR7 and CD45RA as markers of memory subsets. pS6 expression in live CD8+ T cells by memory subsets was shown by the expression of CCR7 and CD45RA as shown in FIG. 16A. As shown, incubation with Compound 63 decreased the mean fluorescence intensity of stimulated memory T cell subsets, […], indicating an inhibition of mTOR, while having no significant effect on the percentage or total number of viable cells over time.

CD4+ and CD8+ T cells [2] = test: Intracellular cytokines following stimulation with PMA/Ionomycin and a Golgi inhibitor; type: cell-based, human; details: engineered CD8+ and CD4+ T cells produced in presence of Compound 63
CAR-T cells = test: Intracellular caspase expression (marker of apoptosis) in thawed CAR-T cells; type: cell-based, human; details: incubated with vs without compound 63
CD4+ and CD8+ T cells [3] = test: Surface expression of CD27 and CCR7 by flow cytometry (phenotypic subset profile); type: cell-based, human; details: thawed
anti-CD19 CAR T cells = test: Long-term stimulation over 12 days with anti-idiotype antibody beads, expansion and survival; type: cell-based, human; details: anti-ID beads, cells produced in presence vs absence of compound 63
Experimental: CD4+ and CD8+ T cells were isolated by immunoaffinity-based enrichment from leukapheresis samples from human donor subjects. At day 1, isolated CD4+ and CD8+ T cells were mixed 1:1 and stimulated with an anti-CD3/anti-CD28 oligomeric stimulatory reagent generated as described in Example 1 in serum-free media supplemented with recombinant IL-2 (100 IU/mL), recombinant IL-7 (600 IU/mL), and recombinant IL-15 (100 IU/mL) with or without 1 μM of 2-(3-hydroxyphenyl)-9-(2-isopropylphenyl)-8-oxo-8,9-dihydro-7H-purine-6-carboxamide (Compound 63). The T cells cultured with our without Compound 63 were incubated overnight (approximately 24 hr) at 37° C., and were then transduced in serum-free culture media with our without Compound 63 ([…]) with a lentiviral vector encoding an anti-CD19 CAR. The CAR contained an scFv antigen-binding domain specific for CD19 (derived from FMC63), a CD28 transmembrane region, a 4-1BB costimulatory signaling region, and a CD3-zeta derived intracellular signaling domain. […]
To further assess the functional activity of the cells, the generated T cell compositions were stimulated long-term over 12 days with beads conjugated with an anti-idiotype (ID) antibody against the anti-CD19 CAR, and expansion and survival of the cells were monitored (FIG. 17F, left panel) and total expansion metric calculated by area under the growth curve (FIG. 17F, right panel, AUC).

mTOR = test: Intracellular S6 phosphorylation (marker of mTOR inhibition) in engineered T cells; type: cell-based, human; details: live CD8+ T cells, Temra, Tem subsets; cells produced with vs without Compound 63
Experimental: as §1

[4] = biological target: Strep-Tactin® (mutein streptavidin, e.g. SEQ ID NO: 4) (Streptomyces avidinii, UniProt P22629, E68V/S69T/V71R); details: background statement, no experiment described; read-out: KD of binding to Strep-Tactin®; cited from earlier work
Chain of Strep-Tactin® (mutein streptavidin, e.g. SEQ ID NO: 4) (P22629 other isoform, or with tags, fused parts or gaps E68V/S69T/V71R): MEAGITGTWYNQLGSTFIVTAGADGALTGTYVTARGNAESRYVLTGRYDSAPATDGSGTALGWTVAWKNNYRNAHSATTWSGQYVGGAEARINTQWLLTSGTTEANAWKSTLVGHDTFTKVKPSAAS

| Compound | percent viable cells (CD4+ and CD8+ T cells [1]) | total live cells (CD4+ and CD8+ T cells [1]) | level of intracellular cytokines IL2, IFNg, or TNF (CD4+ and CD8+ T cells [2]) | intracellular caspase expression (CAR-T cells) | phenotypic subset profile by CD27 and/or CCR7 expression (CD4+ and CD8+ T cells [3]) | function (expansion) following long-term CAR-specific stimulation (anti-CD19 CAR T cells) | mean fluorescence intensity of pS6 in memory T cell subsets (mTOR) | Kd [4] |
| --- | --- | --- | --- | --- | --- | --- | --- | --- |
| CC(C)c1ccccc1-n1c(=O)[nH]c2c(C(N)=O)nc(-c3cccc(O)c3)nc21 [Compound 63, 2-(3-hydroxyphenyl)-9-(2-isopropylphenyl)-8-oxo-8,9-dihydro-7H-purine-6-carboxamide] | did not impact | did not impact | substantially improved | less intracellular caspase expression | did not substantially alter | improved function | decreased |  |
| WSHPQFEK [Strep-Tag® II] |  |  |  |  |  |  |  | ~1000 nM |

Source: patent US20250237628A1, “CELL SELECTION AND/OR STIMULATION DEVICES AND METHODS OF USE” (Juno Therapeutics GmbH, priority 2019, published 2025)
